Measured values as given in BindingDB's records for patent US9694016 (Novartis AG, 2017).

What follows are compounds tested against RAF proto-oncogene serine/threonine-protein kinase [Y340E,Y341E] (Human, UniProt P04049, Y340E/Y341E) (assay: Raf Activity Assay). Details: pH 7.5; 25 °C.
Chain of RAF proto-oncogene serine/threonine-protein kinase [Y340E,Y341E] (P04049 whole entry Y340E/Y341E): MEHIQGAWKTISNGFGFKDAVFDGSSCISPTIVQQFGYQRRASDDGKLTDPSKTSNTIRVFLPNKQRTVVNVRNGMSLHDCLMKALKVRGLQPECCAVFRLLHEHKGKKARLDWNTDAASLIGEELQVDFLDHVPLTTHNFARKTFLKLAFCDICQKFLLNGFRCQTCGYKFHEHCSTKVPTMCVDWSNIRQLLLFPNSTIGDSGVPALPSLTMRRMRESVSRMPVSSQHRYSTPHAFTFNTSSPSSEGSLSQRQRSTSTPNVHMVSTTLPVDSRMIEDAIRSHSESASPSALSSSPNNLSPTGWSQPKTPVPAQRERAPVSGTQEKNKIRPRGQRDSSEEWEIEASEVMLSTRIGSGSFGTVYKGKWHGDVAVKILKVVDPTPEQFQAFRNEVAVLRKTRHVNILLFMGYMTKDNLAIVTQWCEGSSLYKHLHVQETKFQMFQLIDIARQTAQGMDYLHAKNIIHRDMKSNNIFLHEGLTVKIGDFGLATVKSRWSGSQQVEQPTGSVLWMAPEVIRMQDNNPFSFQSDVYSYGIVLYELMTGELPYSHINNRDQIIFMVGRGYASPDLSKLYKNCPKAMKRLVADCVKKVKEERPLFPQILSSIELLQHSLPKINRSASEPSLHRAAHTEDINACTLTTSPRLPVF

Compound	IC50
Cc1ncc(NC(=O)c2ccnc(C(C)(F)F)c2)cc1-c1cnc(C#N)c(N2CCOCC2)c1 [US9694016, 250]	0.8 nM
Cn1cc(-c2cc(NC(=O)c3ccnc(C(C)(F)F)c3)ccc2C#N)cc(N2CCOCC2)c1=O [US9694016, 416]	200 nM
Cc1ncc(NC(=O)c2ccnc(C(C)(F)F)c2)cc1-c1cc(N2CCOC[C@@H]2C)n(C)c(=O)c1 [US9694016, 526]	9.4 nM
CCOc1nnc(-c2cc(NC(=O)c3ccnc(C(F)(F)F)c3)ccc2C)cc1N1CCOCC1 [US9694016, 566]	0.2 nM
Cc1ccc(NC(=O)c2ccnc(C3CC3)c2)cc1-c1cc(N2CCOCC2)c(=O)n(C)n1 [US9694016, 656]	0.3 nM
CCNc1nc(-c2cc(NC(=O)c3cccc(S(C)(=O)=O)c3)ccc2C)cc(N2CCOCC2)n1 [US9694016, 704]	0.08 nM
CCNc1nc(-c2cc(NC(=O)c3ccnc(C(C)(F)F)c3)cnc2C)cc(N2CCOCC2)n1 [US9694016, 725]	1.2 nM
Cc1ncc(NC(=O)c2ccnc(C3(C#N)CC3)c2)cc1-c1cnc(OC2CCOCC2)c(N2CCOCC2)c1 [US9694016, 940]	1.33 nM

The remaining compounds from weak to strong by IC50, led by results:

IC50	Compound
12 nM	Cc1ncc(NC(=O)c2cc(CN(C)C)cc(C(F)(F)F)c2)cc1-c1cc(N2CCOCC2)c(=O)n(C)c1 [US9694016, 401]
6.6 nM	Cc1ncc(NC(=O)c2cnnc(C(C)(C)C#N)c2)cc1-c1cc(N2CCOCC2)c(OC2CCOCC2)nn1 [US9694016, 635]
3.9 nM	Cc1ncc(NC(=O)c2ccnc(C(C)(C)C#N)c2)cc1-c1cnc(OC(F)F)c(N2CCOCC2)c1 [US9694016, 225]
3.4 nM	CNC(=O)C1CN(c2cc(-c3cc(NC(=O)c4cccc(C(F)(F)F)c4)cnc3C)nn3ccnc23)CCO1 (stereo unspecified) [US9694016, 874]
2 nM	COc1nnc(-c2cc(NC(=O)c3ccnc(C(C)(C)F)c3)cnc2C)cc1N1CCOCC1 [US9694016, 608]
0.5 nM	CCOc1nnc(-c2cc(NC(=O)c3cccc(C(F)F)c3)cnc2C)cc1N1CCOCC1 [US9694016, 619]
0.2 nM	CCOc1nc(-c2cc(NC(=O)c3ccnc(C(C)C)c3)ccc2C)cc(N2CCOCC2)n1 [US9694016, 763]
0.08 nM	Cc1ccc(NC(=O)c2ccnc(C(C)(C)C#N)c2)cc1-c1cc(N2CCOCC2)nc(OC2CNC2)n1 [US9694016, 777]
